# From patent US6524625B2, “Physiologically active extract obtained from indigo plant polygonum tinctorium” (Kabushiki Kaisha Hayashibara Seibutsu Kagaku Kenkyuto, priority 1998, dated 2003)
# Read-outs that look alike come from different tables or passages of the source.
# What was measured:
# [1] = system: Pseudomonas aeruginosa (IFO 3453); experiment: Antiseptic action: MIC, agar plate dilution method; type: cell-based; settings: IFO3453; Pseudomonas aeruginosa (IFO 3453); read-out: Minimum inhibitory concentration
# [2] = Radical-entrapping action, nitro blue tetrazolium (NBT) method; type: biochemical; settings: for Radical-entrapping action: one unit = 50% inhibition of formazan formation, xanthin oxidase/xanthin/NBT; for Radical-entrapping action (in words): comment on Table 11
# Experimental: Then the formed formazan was quantified on spectro-chemical analysis. Either of the present physiologically active extracts was dissolved in a refined water to give an appropriate concentration, and the solutions were used for test samples. As a control it was provided by replacing the test samples with a refined water. The 50% inhibitory activity for the formation of formazan in the control was defined as a one unit activity of radical-entrapping action. Based of the definition, the radical-entrapping activity of one gram of each test sample was determined.
# [3] = system: Staphylococcus aureus (ATCC 6538P); experiment: Antiseptic action: MIC, agar plate dilution method; type: cell-based; settings: ATCC6538P; Staphylococcus aureus (ATCC 6538P); read-out: Minimum inhibitory concentration
# [4] = system: Helicobacter pylori (NCTC 11638); experiment: Antiseptic action: MIC, agar plate dilution method; type: cell-based; settings: for MIC: NCTC11638, Helicobacter pylori (NCTC 11638), Brucella broth agar with horse blood, read-out: Minimum inhibitory concentration; for Inhibition of the growth of Helicobacter pylori (in words): comment on Table 8
# [5] = system: Bacillus cereus (IFO 3466); experiment: Antiseptic action: MIC, agar plate dilution method; type: cell-based; settings: IFO3466; Bacillus cereus (IFO 3466); read-out: Minimum inhibitory concentration
# [6] = system: vesicular stomatitis virus (VSV); experiment: microbe, parasite or virus in culture; type: cell-based; settings: L929, 24 h, read-out: 50% Growth inhibitory concentration
# HLC-1 cells = experiment: Antitumor action: growth inhibition, methylene blue staining; type: cell-based; settings: Homo sapiens; HLC-1 cells, 48 hours; read-out: 50% growth inhibitory concentration
# Experimental: (§1) Solutions in each well were serially diluted with a fresh preparation of the same RPMI1640 medium (pH 7.2) as used in the above. […] Each cell suspension was distributed to a microplate in a volume of 50 μl/well and incubated at 37° C. for 48 hours in a 5 v/v % CO2 incubator. To each microplate, a 25 v/v % aqueous glutaraldehyde solution was added in a volume of 20 μl/well, and the microplate was allowed to stand for 15 min to fix the cells. Then, the cells adhered to the wells were washed with water, admixed with a 0.05 w/v % aqueous methylene blue solution in a volume of 100 μl/well, and further allowed to stand for 15 min to stain the cells. Thereafter, an excessive amount of the staining solution was removed from the wells by washing with water, and the cells were dried, admixed with 300 μl/well of 0.33 N hydrochloric acid, stirred sufficiently, and measured for absorption at a wavelength of 620 nm. In parallel, as a control, a system free of a test sample was provided and treated similarly as in the test samples. […]
# HGC-27 cells = experiment: as above; type: cell-based; settings: Homo sapiens; HGC-27 cells, 48 hours; read-out: 50% growth inhibitory concentration
# Experimental: as §1
# HL-60 cells = experiment: as above; type: cell-based; settings: Homo sapiens; HL-60 cells, 48 hours; read-out: 50% growth inhibitory concentration
# Experimental: as §1
# HBL-38 cells = settings: for Relative value of 3H-thymidine uptake: HBL-38 cells, relative to positive control = 100
# Experimental: (§2) […] of either of the above dilutes of Compound 7, 150 μl of the above cell suspension of HBL-38 cells treated with disperse, and 50 μl of a serum-free medium containing 5 μg/ml of lipopolysaccharide (LPS) were added to each well in a microplate, and the cells were incubated at 37° C. for 24 hours in a 5 v/v % CO2 incubator and used for test group. In parallel, as a negative control, a system with a serum-free medium in place of the serum-free medium containing LPS in the test group, and, as a positive group, a system with a serum medium in place of the dilute of Compound 7 in the test group were provided and treated similarly as in test group. After 24-hour incubation, 50 μl aliquots of supernatants from each well were collected. The collected supernatants were respectively subjected to conventional enzyme immunoassay using Gg23-901-530, obtained from National Institute of Health, Bethesda, Md., USA, as a standard for human interferon-γ, and quantified for interferon-γ production in each system. The cells in each well, from which the supernatants were removed, were mixed with 50 μl aliquots of a ^3H-thymidine solution with a radiation intensity of 5 μCi/ml in serum medium, and incubated at 37° C. for eight hours in a 5 v/v % CO2 incubator. Thereafter, the cells in each well in the microplate were collected with a glass filter, measured for radiation intensity by “DIRECT β-COUNTER MATRIX 96”, a β-ray detector commercialized by Packard Instrument Co., Conn., USA, and examined for ^3H-thymidine uptake by the cells in each well. […] In Table 13 the level of ^3H-thymidine uptake is expressed with a relative value (%) to the positive control.
# interferon-γ production = settings: HBL-38 cells + LPS; for Interferon-γ production level: 24 hours, positive control 5.468, negative control 1.367
# Experimental: HBL-38 cells as an immunocompetent cell were cultured until proliferated to a prescribed cell density. After culturing, the proliferated HBL-38 cells were washed three times with RPMI1640 medium (pH 7.2) (hereinafter designated as “serum-free medium” in Experiment 15) by centrifugation, and adjusted to give a cell density of 1×10^8 cells/ml using the serum-free medium. To one milliliter of the cell suspension were added 4.5 ml of the serum-free medium and 0.5 ml of a disperse solution prepared by dissolving dispase, commercialized by Godo Shusei, Co., Ltd., Tokyo, Japan, in physiological saline to give a concentration of 10,000 units/ml, and the mixture was incubated at 37° C. for 90 min under shaking conditions. Thereafter, HBL-38 cells were washed three times with the serum medium by centrifugation and mixed with the serum medium into a cell suspension with a cell density of 1×10^6 cells/ml.
# as §2
structure (smiles),measurement,setting,value
"O=c1c(O)c(-c2ccc(O)cc2)oc2cc3c(c(O)c12)OCO3 [Compound 2, 3,5, 4′-trihydroxy-6,7-methylenedioxy-flavone]",MIC,[1],313 µg/mL
same,Radical-entrapping action,[2],"1,830 unit/g"
same,MIC,[3],313 µg/mL
same,MIC,[4],156 µg/mL
same,MIC,[5],313 µg/mL
same,IC50,[6],14 µg/mL
same,IC50,HLC-1 cells,40.4 µg/mL
same,IC50,HGC-27 cells,37.1 µg/mL
same,IC50,HL-60 cells,244 µg/mL
"O=c1c(O)c(-c2ccc(O)cc2)oc2cc(O)cc(O)c12 [Compound 3, kaempferol]",Radical-entrapping action,[2],"14,000 unit/g"
same,MIC,[4],39 µg/mL
same,Inhibition of the growth of Helicobacter pylori (in words),[4],strongly inhibited the growth
"COc1c(O)cc2oc(-c3ccc(O)cc3)c(O)c(=O)c2c1O [Compound 4, 3,5,7,4′-tetrahydroxy-6-methoxy-flavone]",Radical-entrapping action,[2],"4,010 unit/g"
same,MIC,[4],39 µg/mL
same,Inhibition of the growth of Helicobacter pylori (in words),[4],strongly inhibited the growth
"O=C(O)c1cc(O)c(O)c(O)c1 [Compound 5, gallic acid]",Radical-entrapping action (in words),[2],remarkable
same,Radical-entrapping action,[2],"692,000 unit/g"
"O=C(O)/C=C/c1ccc(O)c(O)c1 [Compound 6, caffeic acid]",Radical-entrapping action (in words),[2],remarkable
same,Radical-entrapping action,[2],"418,000 unit/g"
"O=C1Nc2ccccc2/C1=C1/Nc2ccccc2C1=O [Compound 7, 3-(1,3-dihydro-3-oxo-2H-indol-2-ylidene)-1,3-dihydro-2H-indol-2-one]",Relative value of 3H-thymidine uptake,HBL-38 cells; 0.07 ng/ml,98.0%
same,Relative value of 3H-thymidine uptake,HBL-38 cells; 0.15 ng/ml,98.3%
same,Relative value of 3H-thymidine uptake,HBL-38 cells; 0.31 ng/ml,99.7%
same,Relative value of 3H-thymidine uptake,HBL-38 cells; 0.62 ng/ml,96.4%
same,Relative value of 3H-thymidine uptake,HBL-38 cells; 1.25 ng/ml,99.6%
same,Relative value of 3H-thymidine uptake,HBL-38 cells; 2.5 ng/ml,105.7%
same,Relative value of 3H-thymidine uptake,HBL-38 cells; 5.0 ng/ml,101.1%
same,Relative value of 3H-thymidine uptake,HBL-38 cells; 10.0 ng/ml,99.4%
same,"Level of 3H-thymidine uptake by HBL-38 cells, control vs test groups (in words)",HBL-38 cells; 0.07-10.0 ng/ml,no significant difference
same,Interferon-γ production level,interferon-γ production; 0.07 ng/ml,2.753 IU/ml
same,Interferon-γ production level,interferon-γ production; 0.15 ng/ml,2.195 IU/ml
same,Interferon-γ production level,interferon-γ production; 0.31 ng/ml,1.979 IU/ml
same,Interferon-γ production level,interferon-γ production; 0.62 ng/ml,1.958 IU/ml
same,Interferon-γ production level,interferon-γ production; 1.25 ng/ml,1.288 IU/ml
same,Interferon-γ production level,interferon-γ production; 2.5 ng/ml,1.342 IU/ml
same,Interferon-γ production level,interferon-γ production; 5.0 ng/ml,0.932 IU/ml
same,Interferon-γ production level,interferon-γ production; 10.0 ng/ml,0.965 IU/ml
same,Concentration at which interferon-γ production was inhibited to the same or lower level as the negative control free of LPS,interferon-γ production,at least 1.25 ng/ml
same,Inhibition of interferon-γ production (in words),interferon-γ production,inhibited the interferon-γ production dose-dependently
